Experimental data reported in PubChem BioAssay (NCI).
Values joined by “and” are separate entries in the source; they are usually repeats but may differ in a detail not shown here. Identical values can stand only once.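 Exposure lasted 48 hours, with cells grown in 96-well plates and compounds tested at five concentrations. GI50 marks 50% less growth. TGI denotes the concentration required for complete inhibition of growth.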

Experiments:
Experiment in all cases: DTP human tumour cell line panel, 48 h
[1] = tested on: A549 NSCLC
[2] = tested on: MDA-MB-231 breast
[3] = tested on: OVCAR-5 ovarian
[4] = tested on: NCI-H23 lung
[5] = tested on: OVCAR-3 ovarian
[6] = tested on: M14 melanoma
[7] = tested on: SK-MEL-5 melanoma
[8] = tested on: SR leukemia
[9] = tested on: SK-MEL-28 melanoma
[10] = tested on: OVCAR-8 ovarian

Structure (SMILES) | TGI [1] | TGI [2] | TGI [3] | TGI [4] | TGI [5] | TGI [6] | TGI [7] | TGI [8] | TGI [9] | TGI [10] | GI50 [1] | GI50 [2] | GI50 [3] | GI50 [4] | GI50 [5] | GI50 [6] | GI50 [7] | GI50 [8] | GI50 [9] | GI50 [10]
COc1c(Cl)c(=O)oc2ccc(Cl)cc12 | > 100 µM | > 100 µM | > 100 µM | > 100 µM | > 100 µM | > 100 µM | > 100 µM | > 100 µM | > 100 µM | > 100 µM |  |  |  |  |  |  |  |  |  | 
CCN(CC)c1ccc(-c2cc(-c3cc(OC)c(OC)c(OC)c3)nc(N3CCOCC3)c2C#N)cc1 | > 100 µM | > 20.8 µM | > 68.2 µM | > 100 µM | 20.9 µM | 1.33 µM | 0.845 µM | 0.672 µM | > 63.5 µM | > 100 µM | 1.37 µM | 0.519 µM | 1.42 µM | 5.25 µM | 3.19 µM | 0.292 µM | 0.219 µM | 0.163 µM | 4.78 µM | 1.91 µM
Cc1c2c(nn1-c1ccc(S(=O)(=O)/N=C3\SCCC(=O)N3c3ccccc3)cc1)-c1ccccc1CC2 | > 100 µM | > 100 µM | > 100 µM | > 100 µM | > 100 µM | > 100 µM | > 100 µM | > 100 µM | > 100 µM | > 100 µM | > 100 µM | 35.1 µM | > 100 µM | > 100 µM | > 100 µM | > 100 µM | 95.9 µM | 65 µM | > 100 µM | 89.6 µM
O=C(CCc1nnc2sc(-c3ccc(Cl)cc3Cl)nn12)c1nc2ncccc2[nH]1 | 10.4 µM | 4.36 µM | 5.29 µM | 4.41 µM | 3.1 µM | 16.5 µM | 3.09 µM | > 100 µM | 5.65 µM | > 100 µM | 2.78 µM | 1.74 µM | 2.33 µM | 1.76 µM | 1.52 µM | 3.35 µM | 1.7 µM | 1.9 µM | 2.44 µM | 3.44 µM
COc1cc(OC)cc(-c2cc(=O)c3c(OC)c(OC)c(OC)c(OC)c3o2)c1 | > 100 µM | > 100 µM | > 100 µM | > 100 µM | > 100 µM | > 100 µM | 84 µM | > 100 µM | > 100 µM | > 100 µM |  |  |  |  |  |  |  |  |  | 
Cc1cc2c(cc1Cl)SC(N(N(C)C)S(=O)(=O)c1ccc(Cl)cc1)=NS2(=O)=O | > 100 µM | 55 µM | > 100 µM | > 100 µM | 61.6 µM | > 100 µM | 28.7 µM | 91.7 µM | > 100 µM | > 100 µM | 20.3 µM | 22.5 µM | 53.8 µM | 31.2 µM | 24 µM | 27.8 µM | 15.4 µM | 23.3 µM | 29.1 µM | 36.6 µM
O=C1OC(O)[C@@H]2[C@H]1[C@H]1CC[C@@H]2O1 (stereo not given in full) | > 100 µM | > 100 µM | > 100 µM | > 100 µM | 69.2 µM | > 100 µM | > 100 µM | > 100 µM | > 94 µM | > 100 µM | 60.8 µM | > 74.3 µM | 57.3 µM | > 100 µM | 32.8 µM | 84.5 µM | 68.2 µM | > 100 µM | > 58.2 µM | > 100 µM
CN(C)CCSC1=Nc2ccc(Cl)cc2C(c2ccccc2Cl)=NC1 | 31.7 µM and > 100 µM | 22.8 µM and > 100 µM | 34.4 µM and > 100 µM | 30.2 µM and > 100 µM | 31.8 µM and > 100 µM | 36.4 µM and > 100 µM | 28.7 µM and > 100 µM | > 100 µM | 34.1 µM and > 100 µM | 20.2 µM and > 100 µM | 13.8 µM and 88.8 µM | 10.7 µM and > 100 µM | 18.6 µM and > 100 µM | 15 µM and 97.1 µM | 17.3 µM and > 100 µM | 15.8 µM and > 100 µM | 15 µM and 43.3 µM | 6.68 µM and 42 µM | 19.4 µM and > 100 µM | 6.63 µM and 43.5 µM
CCN1CCN(c2nc(C)cc(N(CCNc3ccnc4cc(Cl)ccc34)Cc3ccc4c(c3)OCO4)n2)CC1 | 8.19 µM | 3.19 µM | 13.6 µM | 14.2 µM | 7.02 µM | 3.44 µM | 3.17 µM | 3.71 µM | 3.42 µM | 7.9 µM | 2.4 µM | 1.38 µM | 3.58 µM | 3.44 µM | 2.28 µM | 1.84 µM | 1.74 µM | 1.33 µM | 1.79 µM | 2.69 µM
CC[C@H](Nc1ncnc2nc[nH]c12)c1oc2ccccc2c(=O)c1-c1cccc(F)c1 | > 100 µM | 50.3 µM | > 100 µM | > 100 µM | > 100 µM | > 100 µM | 28.2 µM | 50 µM | > 100 µM | > 100 µM | 29.2 µM | 16.6 µM | 42.5 µM | 29.7 µM | 18.3 µM | 28.1 µM | 14 µM | 11.5 µM | 22.6 µM | 31.9 µM
C=C(Br)C(C)(Br)CCC(Br)C(C)(C)Cl (stereo not given) | > 100 µM | 34.8 µM | 39.7 µM | 36.5 µM | 33.5 µM | 39 µM | 32.4 µM | 27.9 µM | 33.3 µM | 35.7 µM |  |  |  |  |  |  |  |  |  | 
